Measurements: the supplement of paper PMC10307832

Tests used:
Experiment in all cases: relative viability (nuclei count vs DMSO), 5 days (fraction); higher = more cells survive
GSK126 + Foretinib = compound: CC[C@H](C)N1C=C(C2=C(C=C(C=C21)C3=CN=C(C=C3)N4CCNCC4)C(=O)NCC5=C(C=C(NC5=O)C)C)C [GSK126] + COc1cc2c(Oc3ccc(NC(=O)C4(C(=O)Nc5ccc(F)cc5)CC4)cc3F)ccnc2cc1OCCCN1CCOCC1 [Foretinib] (partner 0.25 µM)
Outline: (§1)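 Medians of duplicate plates are given as relative viability. That measure is the nuclei count in treated wells divided by the count in vehicle wells. Counts were taken on 4× images of lung cancer cell lines in 1536-well plates, 5 days after pin-tool dosing the day after seeding with one drug alone or a fixed anchor-drug dose plus five library-drug doses (not always all listed) in √10 steps.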

GSK126 + Bortezomib = compound: CC[C@H](C)N1C=C(C2=C(C=C(C=C21)C3=CN=C(C=C3)N4CCNCC4)C(=O)NCC5=C(C=C(NC5=O)C)C)C [GSK126] + CC(C)C[C@H](NC(=O)[C@H](Cc1ccccc1)NC(=O)c1cnccn1)B(O)O [Bortezomib] (partner 0.002 µM)
Outline: as §1

Carboplatin + Decitabine = compound: C1CC(C1)(C(=O)O)C(=O)O.[NH2-].[NH2-].[Pt+2] [Carboplatin] + Nc1ncn([C@H]2C[C@H](O)[C@@H](CO)O2)c(=O)n1 [Decitabine] (partner 2 µM)
Outline: as §1

Row | Cell Line | relative viability (GSK126 + Foretinib; first compound 0.08 µM) | relative viability (GSK126 + Foretinib; first compound 0.253 µM) | relative viability (GSK126 + Foretinib; first compound 0.8 µM) | relative viability (GSK126 + Foretinib; first compound 2.53 µM) | relative viability (GSK126 + Foretinib; first compound 8 µM) | relative viability (GSK126 + Bortezomib; first compound 0.08 µM) | relative viability (GSK126 + Bortezomib; first compound 0.253 µM) | relative viability (GSK126 + Bortezomib; first compound 0.8 µM) | relative viability (GSK126 + Bortezomib; first compound 2.53 µM) | relative viability (GSK126 + Bortezomib; first compound 8 µM) | relative viability (Carboplatin + Decitabine; first compound 0.08 µM) | relative viability (Carboplatin + Decitabine; first compound 0.253 µM) | relative viability (Carboplatin + Decitabine; first compound 0.8 µM) | relative viability (Carboplatin + Decitabine; first compound 2.53 µM) | relative viability (Carboplatin + Decitabine; first compound 8 µM)
1 | HCC-78 | 0.561 | 0.556 | 0.521 | 0.63 | 0.548 | 0.464 | 0.466 | 0.374 | 0.562 | 0.389 | 0.659 | 0.61 | 0.709 | 0.656 | 0.73
2 | LU99A | 0.826 | 0.838 | 0.74 | 0.746 | 0.694 | 1.13 | 1.08 | 1.19 | 1.15 | 1.12 | 0.862 | 0.869 | 0.864 | 0.731 | 0.724
3 | NCI-H520 | 1.04 | 0.693 | 0.719 | 0.78 | 0.909 | 0.745 | 0.709 | 0.571 | 0.522 | 0.754 | 0.551 | 0.545 | 0.449 | 0.457 | 0.438
4 | NCI-H661 | 1.09 | 1.05 | 0.997 | 1.04 | 1.09 | 1 | 0.88 | 0.808 | 0.926 | 0.632 | 0.526 | 0.577 | 0.534 | 0.521 | 0.526
5 | NCI-H1975 | 0.952 | 0.828 | 0.886 | 0.873 | 0.932 | 0.509 | 0.31 | 0.361 | 0.392 | 0.343 | 0.416 | 0.399 | 0.402 | 0.43 | 0.367
6 | NCI-H1355 | 1.05 | 1.05 | 0.964 | 1.09 | 0.979 | 1.27 | 1.33 | 1.11 | 1.17 | 1.19 | 0.337 | 0.379 | 0.329 | 0.333 | 0.28
7 | NCI-H1755 | 1.02 | 0.975 | 0.962 | 0.924 | 0.968 | 0.979 | 0.978 | 1.05 | 0.839 | 0.922 | 0.702 | 0.674 | 0.737 | 0.668 | 0.607
8 | NCI-H2009 | 1.25 | 1.25 | 1.15 | 1.18 | 1.35 | 1.3 | 0.951 | 0.992 | 1.16 | 1.09 | 0.352 | 0.379 | 0.345 | 0.364 | 0.357
9 | HCC-827 | 1.02 | 1.02 | 1.01 | 1.03 | 1.09 | 1.07 | 1.09 | 1.02 | 1.09 | 0.965 | 0.354 | 0.321 | 0.248 | 0.19 | 0.304
10 | NCI-H322M | 0.942 | 1.03 | 0.958 | 1.13 | 0.972 | 1.12 | 1.26 | 1.27 | 1.25 | 1.26 | 0.74 | 0.723 | 0.711 | 0.763 | 0.62
11 | NCI-H727 | 1.09 | 0.981 | 0.888 | 1.01 | 0.744 | 1.02 | 0.78 | 0.899 | 0.854 | 0.88 | 1.12 | 0.956 | 0.882 | 0.935 | 0.861
12 | BEN | 0.712 | 0.767 | 0.575 | 0.683 | 0.607 | 1.11 | 0.742 | 0.737 | 0.885 | 0.846 | 0.87 | 0.714 | 0.691 | 0.634 | 0.599
13 | NCI-H2085 | 1.09 | 1.04 | 0.855 | 1.12 | 1.24 | 1.19 | 0.998 | 1.12 | 1.04 | 1.05 | 0.548 | 0.57 | 0.506 | 0.544 | 0.474
14 | LCLC-103H | 0.86 | 0.744 | 0.738 | 0.926 | 0.814 | 1.23 | 0.995 | 0.984 | 1.13 | 1.03 | 0.801 | 0.735 | 0.747 | 0.719 | 0.735
15 | EKVX | 0.755 | 0.881 | 0.782 | 0.876 | 0.903 | 1 | 1.07 | 1.08 | 0.992 | 1.06 | 0.4 | 0.331 | 0.389 | 0.307 | 0.283
16 | 201T | 1.17 | 1.1 | 1.11 | 1.37 | 1.33 | 1.09 | 1.12 | 1.07 | 1.2 | 0.959 | 0.869 | 0.822 | 0.865 | 0.791 | 0.76
17 | NCI-H2023 | 1.02 | 0.885 | 0.961 | 1.05 | 1.15 | 1.45 | 1.01 | 1.19 | 1.39 | 1.37 | 0.238 | 0.224 | 0.185 | 0.141 | 0.129
18 | NCI-H2347 | 0.842 | 0.861 | 1.07 | 1.25 | 1.35 | 0.931 | 0.924 | 0.917 | 1.36 | 0.89 | 0.615 | 0.428 | 0.621 | 0.653 | 0.552
19 | LXF-289 | 0.962 | 1.01 | 0.952 | 0.973 | 1.02 | 1.04 | 0.996 | 1 | 1.01 | 1.04 | 0.395 | 0.407 | 0.382 | 0.358 | 0.31
